Assay results from US11739100B2, “2,3-dihydro-1h-imidazo{1,2-a}pyrimidin-5-one and this 1,2,3,4-tetrahydropyrimido{1,2-a}pyrimidin-6-one derivatives comprising a substituted morpholine, preparation thereof and pharmaceutical use thereof” (SANOFI, priority 2012, dated 2023).

The compounds below were run against T1, recombinant Vps34 (Homo sapiens, UniProt Q8NEB9) (assay: Phosphorylation of phosphatidylinositol (PI) by Vps34 in vitro, ADP detected by TR-FRET (HTRF Transcreener ADP)). Details: 10 μM ATP, 55 μg/ml PI, approximately 3 nM Vps34, 1 hour at ambient temperature; absolute IC50, mean of two independent experiments; read-out: IC50 activity range.
T1 construct: purchased Invitrogen PV5126
T1 sequence (Q8NEB9 whole entry): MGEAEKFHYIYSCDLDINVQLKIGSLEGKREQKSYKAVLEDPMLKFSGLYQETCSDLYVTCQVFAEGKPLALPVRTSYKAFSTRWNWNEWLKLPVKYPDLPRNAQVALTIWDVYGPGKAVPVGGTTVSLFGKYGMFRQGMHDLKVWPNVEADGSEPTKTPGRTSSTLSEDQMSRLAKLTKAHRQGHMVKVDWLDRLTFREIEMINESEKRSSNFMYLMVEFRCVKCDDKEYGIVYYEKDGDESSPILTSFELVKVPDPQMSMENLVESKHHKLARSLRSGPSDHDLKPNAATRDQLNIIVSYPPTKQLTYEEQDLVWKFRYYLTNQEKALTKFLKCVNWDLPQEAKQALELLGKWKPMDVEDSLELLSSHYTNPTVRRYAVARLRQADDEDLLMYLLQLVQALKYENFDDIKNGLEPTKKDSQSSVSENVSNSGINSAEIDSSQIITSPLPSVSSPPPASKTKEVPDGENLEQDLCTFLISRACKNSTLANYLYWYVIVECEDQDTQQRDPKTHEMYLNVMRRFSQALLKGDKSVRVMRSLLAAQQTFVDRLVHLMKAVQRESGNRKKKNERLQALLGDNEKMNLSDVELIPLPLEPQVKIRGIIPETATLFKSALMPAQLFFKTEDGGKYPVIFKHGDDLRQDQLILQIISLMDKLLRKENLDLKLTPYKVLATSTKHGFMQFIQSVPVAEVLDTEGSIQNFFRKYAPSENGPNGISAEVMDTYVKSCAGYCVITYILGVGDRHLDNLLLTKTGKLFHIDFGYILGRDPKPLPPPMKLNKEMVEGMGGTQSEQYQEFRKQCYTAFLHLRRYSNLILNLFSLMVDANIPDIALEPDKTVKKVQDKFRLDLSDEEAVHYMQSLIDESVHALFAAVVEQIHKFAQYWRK
Type: biochemical

| Structure (SMILES) | IC50 [nM] |
| --- | --- |
| C[C@@H]1COCCN1c1cc(=O)n2c(n1)N(Cc1cocn1)CC[C@@H]2C(F)(F)F [Example 110, (R)-2-((R)-3-Methyl-morpholin-4-yl)-9-oxazol-4-ylmethyl-6-trifluoromethyl-6,7,8,9-tetrahydro-pyrimido[1,2-a]-pyrimidin-4-one] | 10 to 100 |
| C[C@@H]1COC[C@@H](C)N1c1cc(=O)n2c(n1)N(Cc1ccc(Cl)nc1)[C@H](C(F)(F)F)CC2 [Example 156, (S)-9-(6-Chloro-pyridin-3-ylmethyl)-2-((3R,5R)-3,5-dimethyl-morpholin-4-yl)-8-trifluoromethyl-6,7,8,9-tetrahydro-pyrimido[1,2-a]-pyrimidin-4-one] | 10 to 100 |
| C[C@@H]1COCCN1c1cc(=O)n2c(n1)N(Cc1ncco1)CC[C@@H]2C(F)(F)F [Example 13, (R)-2-((R)-3-Methyl-morpholin-4-yl)-9-oxazol-2-ylmethyl-6-trifluoromethyl-6,7,8,9-tetrahydro-pyrimido[1,2-a]-pyrimidin-4-one] | 10 to 100 |
| Cc1nnc(CN2c3nc(N4CCOC[C@H]4C)cc(=O)n3CC[C@H]2C(F)(F)F)o1 [Example 96, (S)-2-((R)-3-Methyl-morpholin-4-yl)-9-(5-methyl-[1,3,4]oxadiazol-2-yl-methyl)-8-trifluoromethyl-6,7,8,9-tetrahydro-pyrimido[1,2-a]-pyrimidin-4-one] | < 10 |
| C[C@@H]1COCCN1c1cc(=O)n2c(n1)N(Cc1ccnn1C(F)F)C(C)(C)CC2 [Example 72, 9-(2-Difluoromethyl-2H-pyrazol-3-yl-methyl)-8,8-dimethyl-2-((R)-3-methyl-morpholin-4-yl)-6,7,8,9-tetrahydro-pyrimido[1,2-a]-pyrimidin-4-one] | 10 to 100 |
| O=c1cc(N2CC3CCC(C2)O3)nc2n1CC[C@@H](C(F)(F)F)N2c1cc(F)cc(F)c1 [Example 161, (S)-9-(3,5-Difluoro-phenyl)-2-(8-oxa-3-azabicyclo[3.2.1]oct-3-yl)-8-trifluoromethyl-6,7,8,9-tetrahydro-pyrimido[1,2-a]-pyrimidin-4-one] | 10 to 100 |
| C[C@@H]1COCCN1c1cc(=O)n2c(n1)N(CC(=O)c1cccnc1)CC[C@@H]2C(F)(F)F [Example 141, (R)-2-((R)-3-Methyl-morpholin-4-yl)-9-(2-oxo-2-pyridin-3-yl-ethyl)-6-trifluoromethyl-6,7,8,9-tetrahydro-pyrimido[1,2-a]-pyrimidin-4-one] | < 10 |
| O=c1cc(N2CCOC(CF)C2)nc2n1CC[C@@H](C(F)(F)F)N2Cc1ccccc1 (single isomer, unassigned) [Example 194] | > 100 |
| C[C@@H]1COCCN1c1nc2n(c(=O)c1F)CC[C@@H](C(F)(F)F)N2Cc1nc(C2CC2)no1 [Example 249, (S)-9-(3-Cyclopropyl-[1,2,4]oxadiazol-5-yl-methyl)-3-fluoro-2-((R)-3-methyl-morpholin-4-yl)-8-trifluoromethyl-6,7,8,9-tetrahydro-pyrimido[1,2-a]-pyrimidin-4-one] | < 10 |
| C[C@@H]1COCCN1c1cc(=O)n2c(n1)N(CCO)[C@H](C(F)(F)F)CC2 [Example 315, (S)-9-(2-Hydroxy-ethyl)-2-((R)-3-methyl-morpholin-4-yl)-8-trifluoromethyl-6,7,8,9-tetrahydro-pyrimido[1,2-a]-pyrimidin-4-one] | < 10 |
| C[C@@H]1COCCN1c1cc(=O)n2c(n1)N(Cc1nnc[nH]1)[C@H](C(F)(F)F)CC2 [Example 264, (S)-2-((R)-3-Methyl-morpholin-4-yl)-9-(4H-[1,2,4]triazol-3-yl-methyl)-8-trifluoromethyl-6,7,8,9-tetrahydro-pyrimido[1,2-a]-pyrimidin-4-one] | < 10 |
| C[C@@H]1COCCN1c1cc(=O)n2c(n1)N(Cc1cccnc1)[C@H](C(F)(F)F)CC2 [Example 217, (S)-2-((R)-3-Methyl-morpholin-4-yl)-9-pyridin-3-ylmethyl-8-trifluoromethyl-6,7,8,9-tetrahydro-pyrimido[1,2-a]-pyrimidin-4-one] | < 10 |
| C[C@@H]1COCCN1c1cc(=O)n2c(n1)N(C/C(=N/O)C1CC1)[C@H](C(F)(F)F)CC2 (single isomer, unassigned) [Example 305] | < 10 |
| C[C@@H]1COCCN1c1nc2n(c(=O)c1F)CC[C@@H](C(F)(F)F)N2Cc1nc(C(C)(C)C)no1 [Example 250, (S)-9-(3-tert-Butyl-[1,2,4]oxadiazol-5-yl-methyl)-3-fluoro-2-((R)-3-methyl-morpholin-4-yl)-8-trifluoromethyl-6,7,8,9-tetrahydro-pyrimido[1,2-a]-pyrimidin-4-one] | < 10 |
| CC(C)CCC(=O)CN1c2nc(N3CCOC[C@H]3C)c(F)c(=O)n2CC[C@H]1C(F)(F)F [Example 279, (S)-3-Fluoro-2-((R)-3-methylmorpholin-4-yl)-9-(5-methyl-2-oxo-hexyl)-8-trifluoromethyl-6,7,8,9-tetrahydro-pyrimido[1,2-a]-pyrimidin-4-one] | < 10 |
| C[C@@H]1COCCN1c1cc(=O)n2c(n1)N(CCOCC(F)(F)F)[C@H](C(F)(F)F)CC2 [Example 82, (S)-2-((R)-3-Methyl-morpholin-4-yl)-9-[2-(2,2,2-trifluoro-ethoxy)ethyl]-8-trifluoromethyl-6,7,8,9-tetrahydro-pyrimido[1,2-a]-pyrimidin-4-one] | < 10 |

Other lines, results leading:

| IC50 [nM] | Structure (SMILES) |
| --- | --- |
| < 10 | CO[C@H](CN1c2nc(N3C[C@H]4CC[C@@H](C3)O4)cc(=O)n2CC[C@H]1C(F)(F)F)c1ccccc1 [Example 206, (S)-9-((S)-2-Methoxy-2-phenylethyl)-2-(1R,5S)-8-oxa-3-aza-bicyclo[3.2.1]oct-3-yl-8-trifluoromethyl-6,7,8,9-tetrahydro-pyrimido[1,2-a]-pyrimidin-4-one] |
| < 10 | C[C@@H]1COCCN1c1nc2n(c(=O)c1F)CC[C@@H](C(F)(F)F)N2CC(=O)C1CCOCC1 [Example 18, (S)-3-Fluoro-2-((R)-3-methylmorpholin-4-yl)-9-[2-oxo-2-(tetrahydro-pyran-4-yl)ethyl]-8-trifluoromethyl-6,7,8,9-tetrahydro-pyrimido[1,2-a]-pyrimidin-4-one] |
| < 10 | CC(C)c1noc(CN2c3nc(N4CCOC[C@H]4C)cc(=O)n3CC[C@H]2C(F)(F)F)n1 [Example 226, (S)-9-(3-Isopropyl-[1,2,4]oxadiazol-5-yl-methyl)-2-((R)-3-methylmorpholin-4-yl)-8-trifluoromethyl-6,7,8,9-tetrahydro-pyrimido[1,2-a]-pyrimidin-4-one] |
| < 10 | CCC(=O)CN1CC[C@H](C(F)(F)F)n2c1nc(N1CCOC[C@H]1C)cc2=O [Example 26, (R)-2-((R)-3-Methyl-morpholin-4-yl)-9-(2-oxobutyl)-6-trifluoromethyl-6,7,8,9-tetrahydro-pyrimido[1,2-a]-pyrimidin-4-one] |
| < 10 | Cc1cc(C(=O)CN2c3nc(N4CCOC[C@H]4C)cc(=O)n3CC[C@H]2C(F)(F)F)no1 [Example 311, (S)-9-[2-(5-Methyl-isoxazol-3-yl)-2-oxo-ethyl]-2-((R)-3-methyl-morpholin-4-yl)-8-trifluoromethyl-6,7,8,9-tetrahydro-pyrimido[1,2-a]-pyrimidin-4-one] |
| < 10 | C[C@@H]1COCCN1c1cc(=O)n2c(n1)N(Cc1ccc(F)nc1)[C@H](C(F)(F)F)CC2 [Example 24, (S)-9-(6-Fluoropyridin-3-ylmethyl)-2-((R)-3-methylmorpholin-4-yl)-8-trifluoromethyl-6,7,8,9-tetrahydro-pyrimido[1,2-a]-pyrimidin-4-one] |
| < 10 | C[C@@H]1COCCN1c1nc2n(c(=O)c1F)[C@@H](C(F)(F)F)CCN2c1ccc(OC(F)F)nc1 [Example 127, (R)-9-(6-Difluoromethoxy-pyridin-3-yl)-3-fluoro-2-((R)-3-methyl-morpholin-4-yl)-6-trifluoromethyl-6,7,8,9-tetrahydro-pyrimido[1,2-a]-pyrimidin-4-one] |
| < 10 | C[C@@H]1COCCN1c1nc2n(c(=O)c1F)CC[C@@H](C(F)(F)F)N2CC(=O)c1cccnc1 [Example 50, (S)-3-Fluoro-2-((R)-3-methylmorpholin-4-yl)-9-(2-oxo-2-pyridin-3-ylethyl)-8-trifluoromethyl-6,7,8,9-tetrahydro-pyrimido[1,2-a]-pyrimidin-4-one] |
| < 10 | C[C@@H]1COCCN1c1nc2n(c(=O)c1F)CCC(C)(C)N2CC(=O)c1ccccn1 [Example 71, 3-Fluoro-8,8-dimethyl-2-((R)-3-methyl-morpholin-4-yl)-9-(2-oxo-2-pyridin-2-yl-ethyl)-6,7,8,9-tetrahydro-pyrimido[1,2-a]-pyrimidin-4-one] |
| < 10 | C[C@@H]1COCCN1c1cc(C(=O)CN2c3nc(N4CCOC[C@H]4C)cc(=O)n3CC[C@H]2C(F)(F)F)ccn1 [Example 303, (S)-2-((R)-3-Methyl-morpholin-4-yl)-9-{2-[2-((R)-3-methyl-morpholin-4-yl)pyridin-4-yl]-2-oxoethyl}-8-trifluoromethyl-6,7,8,9-tetrahydropyrimido[1,2-a]pyrimidin-4-one] |
| < 10 | C[C@@H]1COCCN1c1nc2n(c(=O)c1F)CC[C@@H](C(F)(F)F)N2CC(=O)c1ccccn1 [Example 38, (S)-3-Fluoro-2-((R)-3-methylmorpholin-4-yl)-9-(2-oxo-2-pyridin-2-ylethyl)-8-trifluoromethyl-6,7,8,9-tetrahydro-pyrimido[1,2-a]-pyrimidin-4-one] |
| < 10 | C[C@@H]1COCCN1c1nc2n(c(=O)c1F)CC[C@@H](C(F)(F)F)N2CCO [Example 204, (S)-3-Fluoro-9-(2-hydroxyethyl)-2-((R)-3-methylmorpholin-4-yl)-8-trifluoromethyl-6,7,8,9-tetrahydro-pyrimido[1,2-a]-pyrimidin-4-one] |
| < 10 | C[C@@H]1COCCN1c1nc2n(c(=O)c1F)CC[C@@H](C(F)(F)F)N2Cc1ncco1 [Example 42, (S)-3-Fluoro-2-((R)-3-methylmorpholin-4-yl)-9-oxazol-2-ylmethyl-8-trifluoromethyl-6,7,8,9-tetrahydro-pyrimido[1,2-a]-pyrimidin-4-one] |
